# Experimental data taken from patent US20100041089A1, “IMPROVED METHOD FOR DETECTING CHEMICAL […]” (priority 2006, published 2010).
# Test system: yeast genes (expressed mRNA)
# Test: DNA chip measurement of expressed mRNA of yeast genes after culture with a toxic chemical substance
# Assay type: cell-based, Saccharomyces cerevisiae S288C
# Conditions: for level of expressed mRNA in the presence of chemical substance / level in the absence of chemical substance: cultured two hours with the chemical substance; for The level of expressed mRNA in the presence of chemical substance/The level of expressed mRNA in the absence of chemical substance: cultured two hours with substance
# Protocol: Yeast (Saccharomyces cerevisiae S288C (a SUC2mal mel gap2 CUP1)) were cultured at 25° C. on YPD medium (yeast extract 1%, polypeptone 2%, glucose 2%). One of toxic chemical substances was added to the cell at logarithmic growth phase, and the cell was further cultured for two hours. Cell was cultured without any chemical substance in the same condition, and was used as a control. Concentrations of the chemical substances were defined to inhibit the growth of the yeast but not lead to death.
# After the completion of cultivation, the culture was centrifuged to collect the cells. To the cells, sodium acetate buffer (50 mM sodium acetate, 10 mM EDTA, 1% SDS) was added, and the mixture was shaken at 65° C. for five minutes, followed by returning to room temperature, and obtaining the supernatant, which procedure was repeated two times. To the supernatant, ½ amount of a solution of phenol/chloroform (1:1) was added, and the mixture was centrifuged to give a supernatant, an equal amount of chloroform was added, and the mixture was centrifuged to give a supernatant. To the supernatant, an equal amount of isopropanol containing 0.3 M sodium acetate was added, and the mixture was allowed to stand at room temperature for 30 minutes, after which the mixture was centrifuged to give sediment of the whole RNAs. Seventy % ethanol was added to the sediment, and the mixture was again centrifuged to give sediment, which was then dried and dissolved in water. mRNA was isolated from the whole RNAs as followings. In view of the fact that a poly A chain is attached to the 3′ terminus of mRNA, a polynucleotide having a poly T structure which was immobilized on the surface of latex beads was used to trap the mRNA, and then the mRNA was washed and eluted with spine column (Oligotex-dT30<Super>mRNA Purification Kit, Takara). Reverse transcription of the mRNA was conducted with a reverse transcriptase (Super Script II Reverse Transcriptase; catalogue No. 18064-014, GibcoBRL) using fluorescence-labeled nucleotides to give cDNAs that were introduced with Cy3-dUTP or Cy5-dUTP during the reverse transcription.
# The labeled cDNAs were dissolved in TE buffer (10 mM Tris-HCl/1 mM EDTA, pH 8.0), and the solution was dropped on the DNA chip containing the whole genes of yeast (DNA Chip Research Inc. Japan) so that the cDNAs were hybridized on the DNA chip at 65° C. for over 12 hours. The fluoresces intensity of the DNA chip was read with a scanner, and the ratio relative to the fluorescence intensity resulting from the absence of chemical substance was estimated as the following, which is shown in Tables 1 to 9.
# In the Tables, “Intensity” indicated in the rightmost column is a value of the level of expressed mRNA of each gene in control cells as divided by the average level of the expressions of the whole genes. A gene of which mRNA level is lower in control, and is higher in cases of addition of chemical substance, is especially useful in the detection of toxic substances.
# Here, when a ratio of an amount of mRNA expressed in the presence of the chemical substance to an amount of mRNA expressed in the absence of the chemical substance is two or more, then it is considered significant.
structure (smiles),measurement,setting,value
"[Cl][Pb][Cl] [(4), PbCl2]",level of expressed mRNA in the presence of chemical substance / level in the absence of chemical substance,yeast gene YJL097W,1.6
same,The level of expressed mRNA in the presence of chemical substance/The level of expressed mRNA in the absence of chemical substance,yeast gene YJL151C,1.2
same,The level of expressed mRNA in the presence of chemical substance/The level of expressed mRNA in the absence of chemical substance,yeast gene YJL152W,1.3
same,The level of expressed mRNA in the presence of chemical substance/The level of expressed mRNA in the absence of chemical substance,yeast gene YJL161W,4.6
same,The level of expressed mRNA in the presence of chemical substance/The level of expressed mRNA in the absence of chemical substance,yeast gene YJL171C,1.4
same,The level of expressed mRNA in the presence of chemical substance/The level of expressed mRNA in the absence of chemical substance,yeast gene YJR008W,1.7
same,level of expressed mRNA in the presence of chemical substance / level in the absence of chemical substance,yeast gene YJR030C,1.2
same,The level of expressed mRNA in the presence of chemical substance/The level of expressed mRNA in the absence of chemical substance,yeast gene YJR054W,0.9
same,level of expressed mRNA in the presence of chemical substance / level in the absence of chemical substance,yeast gene YKL051W,0.8
same,The level of expressed mRNA in the presence of chemical substance/The level of expressed mRNA in the absence of chemical substance,yeast gene YKL071W,2.8
same,The level of expressed mRNA in the presence of chemical substance/The level of expressed mRNA in the absence of chemical substance,yeast gene YKL086W,2.6
same,level of expressed mRNA in the presence of chemical substance / level in the absence of chemical substance,yeast gene YKL097C,1.4
same,level of expressed mRNA in the presence of chemical substance / level in the absence of chemical substance,yeast gene YKL100C,1.6
same,The level of expressed mRNA in the presence of chemical substance/The level of expressed mRNA in the absence of chemical substance,yeast gene YKL151C,2.5
same,The level of expressed mRNA in the presence of chemical substance/The level of expressed mRNA in the absence of chemical substance,yeast gene YKL153W,0.7
same,The level of expressed mRNA in the presence of chemical substance/The level of expressed mRNA in the absence of chemical substance,yeast gene YKL195W,1.1
same,level of expressed mRNA in the presence of chemical substance / level in the absence of chemical substance,yeast gene YKR040C,2.9
same,The level of expressed mRNA in the presence of chemical substance/The level of expressed mRNA in the absence of chemical substance,yeast gene YKR091W,3.5
same,The level of expressed mRNA in the presence of chemical substance/The level of expressed mRNA in the absence of chemical substance,yeast gene YLR054C,2.4
same,The level of expressed mRNA in the presence of chemical substance/The level of expressed mRNA in the absence of chemical substance,yeast gene YLR149C,2.3
same,The level of expressed mRNA in the presence of chemical substance/The level of expressed mRNA in the absence of chemical substance,yeast gene YLR152C,0.9
same,The level of expressed mRNA in the presence of chemical substance/The level of expressed mRNA in the absence of chemical substance,yeast gene YLR194C,3.6
same,level of expressed mRNA in the presence of chemical substance / level in the absence of chemical substance,yeast gene YLR226W,1.0
same,The level of expressed mRNA in the presence of chemical substance/The level of expressed mRNA in the absence of chemical substance,yeast gene YLR324W,1.0
same,level of expressed mRNA in the presence of chemical substance / level in the absence of chemical substance,yeast gene YLR338W,1.1
same,The level of expressed mRNA in the presence of chemical substance/The level of expressed mRNA in the absence of chemical substance,yeast gene YLR350W,2.3
same,The level of expressed mRNA in the presence of chemical substance/The level of expressed mRNA in the absence of chemical substance,yeast gene YLR387C,0.6
same,level of expressed mRNA in the presence of chemical substance / level in the absence of chemical substance,yeast gene YLR392C,1.9
same,level of expressed mRNA in the presence of chemical substance / level in the absence of chemical substance,yeast gene YLR427W,0.5
same,The level of expressed mRNA in the presence of chemical substance/The level of expressed mRNA in the absence of chemical substance,yeast gene YLR460C,1.1
same,level of expressed mRNA in the presence of chemical substance / level in the absence of chemical substance,yeast gene YML013W,0.6
same,level of expressed mRNA in the presence of chemical substance / level in the absence of chemical substance,yeast gene YML029W,1.0
same,level of expressed mRNA in the presence of chemical substance / level in the absence of chemical substance,yeast gene YML041C,1.0
same,level of expressed mRNA in the presence of chemical substance / level in the absence of chemical substance,yeast gene YML079W,1.5
same,The level of expressed mRNA in the presence of chemical substance/The level of expressed mRNA in the absence of chemical substance,yeast gene YML117W,1.6
same,The level of expressed mRNA in the presence of chemical substance/The level of expressed mRNA in the absence of chemical substance,yeast gene YMR009W,1.9
same,The level of expressed mRNA in the presence of chemical substance/The level of expressed mRNA in the absence of chemical substance,yeast gene YMR067C,0.4
same,level of expressed mRNA in the presence of chemical substance / level in the absence of chemical substance,yeast gene YMR068W,1.5
same,level of expressed mRNA in the presence of chemical substance / level in the absence of chemical substance,yeast gene YMR071C,1.9
same,The level of expressed mRNA in the presence of chemical substance/The level of expressed mRNA in the absence of chemical substance,yeast gene YMR090W,3.5
same,The level of expressed mRNA in the presence of chemical substance/The level of expressed mRNA in the absence of chemical substance,yeast gene YMR095C,1.0
same,The level of expressed mRNA in the presence of chemical substance/The level of expressed mRNA in the absence of chemical substance,yeast gene YMR097C,1.6
same,The level of expressed mRNA in the presence of chemical substance/The level of expressed mRNA in the absence of chemical substance,yeast gene YMR102C,0.8
same,The level of expressed mRNA in the presence of chemical substance/The level of expressed mRNA in the absence of chemical substance,yeast gene YMR107W,18.4
same,level of expressed mRNA in the presence of chemical substance / level in the absence of chemical substance,yeast gene YMR160W,1.2
same,The level of expressed mRNA in the presence of chemical substance/The level of expressed mRNA in the absence of chemical substance,yeast gene YMR180C,1.3
same,The level of expressed mRNA in the presence of chemical substance/The level of expressed mRNA in the absence of chemical substance,yeast gene YMR184W,1.1
same,The level of expressed mRNA in the presence of chemical substance/The level of expressed mRNA in the absence of chemical substance,yeast gene YMR191W,1.6
same,The level of expressed mRNA in the presence of chemical substance/The level of expressed mRNA in the absence of chemical substance,yeast gene YMR295C,1.6
same,The level of expressed mRNA in the presence of chemical substance/The level of expressed mRNA in the absence of chemical substance,yeast gene YMR316W,1.9
same,level of expressed mRNA in the presence of chemical substance / level in the absence of chemical substance,yeast gene YNL026W,0.8
same,The level of expressed mRNA in the presence of chemical substance/The level of expressed mRNA in the absence of chemical substance,yeast gene YNL044W,1.3
